From BindingDB's records for doi:10.1021/jm970682+ (University of Louvain, 1998)

What was measured:
[1] = The compound was tested for the affinity on sigma 1 receptor using [3H]- pentazocine as radioligand
[2] = as above; remark: listed apart in the source

Row | Ki [1] [nM] | Ki [2] [nM] | Structure (SMILES)
1 | 63 |  | CCC(=O)c1ccc2c(c1)sc(=O)n2C(=O)CC [3,6-Dipropionyl-3H-benzothiazol-2-one]
2 |  | 628 | CCCCC(=O)c1ccc2c(c1)sc(=O)n2CCN(C)C [3-(2-Dimethylamino-ethyl)-6-pentanoyl-3H-benzothiazol-2-one]
3 |  | 72 | CCC(=O)c1ccc2c(c1)oc(=O)n2CCN1CCCCC1 [3-(2-Piperidin-1-yl-ethyl)-6-propionyl-3H-benzooxazol-2-one]
4 |  | 47 | CCC(=O)c1ccc2c(c1)sc(=O)n2CCN1CCCCC1 [3-(2-Piperidin-1-yl-ethyl)-6-propionyl-3H-benzothiazol-2-one]
5 |  | 0.6 | CCCc1ccc2c(c1)sc(=O)n2CCN1CCCCC1 [3-(2-Piperidin-1-yl-ethyl)-6-propyl-3H-benzothiazol-2-one]
6 |  | 365 | CN(C)CCn1c(=O)oc2cc(C(=O)c3ccccc3)ccc21 [6-Benzoyl-3-(2-dimethylamino-ethyl)-3H-benzooxazol-2-one]
7 |  | 54 | O=C(c1ccccc1)c1ccc2c(c1)sc(=O)n2CCN1CCCC1 [6-Benzoyl-3-(2-pyrrolidin-1-yl-ethyl)-3H-benzothiazol-2-one]
8 |  | 72 | O=c1oc2cc(Cc3ccccc3)ccc2n1CCN1CCOCC1 [6-Benzyl-3-(2-morpholin-4-yl-ethyl)-3H-benzooxazol-2-one]
9 |  | 571 | CCC(=O)c1ccc2c(c1)sc(=O)n2CCN1CCCC1 [6-Propionyl-3-(2-pyrrolidin-1-yl-ethyl)-3H-benzothiazol-2-one]
